From patent US10906878B2, “Kinase inhibitors for the treatment of disease” (Dana-Farber Cancer Institute, Inc., priority 2013, dated 2021)

What was measured:
Assay type in all cases: cell-based
[1] = target: EGFR Del Ba/F3 cells (Homo sapiens, UniProt P00533, cells depend on it, form not given); assay: Ba/F3 cell growth inhibition (MTS assay), EGFR Del; details: for EGFR activity (% Control, 100 nM drug) Del: Table F; for IC50: Assay 1, Del, read-out: EGFR Ba/F3 cells IC 50 (nM) Assay 1 Del
Source text: (§1) The specific cDNAs encoding the oncogenic alterations (EGFR: Del 19, L858R, L718Q, L844V, Del/T790M, L858R/T790M, Del 19/L718Q, Del 19/L844V, Del 19/T790M/L718Q and L858R/T790M/L718Q; FGFR: TEL-FGFR1, TEL-FGFR2, TEL-FGFR1 V561M, TEL-FGFR2 V561M; ALK: EML4-ALK; ROS1: CD74-ROS1) were cloned into the pDNA-Dual (BD Biosciences) vector using standard molecular biology techniques. Mutations were introduced using site-directed mutagenesis (Agilent) with mutant specific primers according to the manufacturer's instructions. All constructs were confirmed by DNA sequencing. The constructs were introduced into Ba/F3 cells using retroviral infection. Polyclonal cell lines were established by puromycin selection and subsequently cultured in the absence of interleukin-3 (IL-3). Uninfected Ba/F3 cells or cell lines expressing green fluorescent protein (GFP) were used as controls.
(§2) Growth and inhibition of growth was assessed by MTS assay. This assay, a colorimetric method for determining the number of viable cells, is based on the bioreduction of 3-(4,5-dimethylthiazol-2-yl)-5-(3-carboxymethoxyphenyl)-2-(4-sulfophenyl)-2H-tetrazolium (MTS) by cells to a formazan product that is soluble in cell culture medium, can be detected spectrophotometrically and was performed according to the manufacturer's recommended conditions. Ba/F3 cells were exposed to treatment for 72 hours and the number of cells used per experiment determined empirically to assure linear growth kinetics over that time period. All experimental points were set up in six to twelve wells and all experiments were repeated at least three times. […] The curves were fitted using a non-linear regression model with a sigmoidal dose response.

[2] = target: EGFR Del/T790M Ba/F3 cells (Homo sapiens, UniProt P00533, T790M, cells depend on it, form not given); assay: Ba/F3 cell growth inhibition (MTS assay), EGFR Del/T790M; details: for EGFR activity (% Control, 100 nM drug) DEL/T790M: Table F; for IC50: Assay 1, Del/T790M, read-out: EGFR Ba/F3 cells IC 50 (nM) Assay 1 Del/T790M
Source text: as §1, §2

[3] = target: EGFR L858R Ba/F3 cells (Homo sapiens (Human), UniProt P00533, L858R); assay: Ba/F3 cell growth inhibition (MTS assay), EGFR L858R; details: for EGFR activity (% Control, 100 nM drug) L858R: Table F; for IC50: Assay 1, L858R, read-out: EGFR Ba/F3 cells IC 50 (nM) Assay 1 L858R
Source text: as §1, §2

[4] = target: EGFR L858R/T790M Ba/F3 cells (Homo sapiens (Human), UniProt P00533, L858R/T790M); assay: Ba/F3 cell growth inhibition (MTS assay), EGFR L858R/T790M; details: for EGFR activity (% Control, 100 nM drug) L858R/T790M: Table F; for IC50: Assay 1, L858R/T790M, read-out: EGFR Ba/F3 cells IC 50 (nM) Assay 1 L858R/T790M
Source text: as §1, §2

[5] = target: EGFR L718Q/L858R Ba/F3 cells (Homo sapiens (Human), UniProt P00533, L718Q/L858R); assay: Ba/F3 cell growth inhibition (MTS assay), EGFR L858R/L718Q; details: for EGFR activity (% Control, 100 nM drug) L858R/L718Q: Table F; for IC50: Assay 1, L718Q/L858R, read-out: EGFR Ba/F3 cells IC 50 (nM) Assay 1 L718Q/L858R
[6] = target: EGFR L858R/T790M/L718Q Ba/F3 cells (Homo sapiens (Human), UniProt P00533, L718Q/L858R/T790M); assay: Ba/F3 cell growth inhibition (MTS assay), EGFR L858R/T790M/L718Q; details: for EGFR activity (% Control, 100 nM drug) L858R/T790M/L718Q: Table F; for IC50: Assay 1, T/L/L718Q, read-out: EGFR Ba/F3 cells IC 50 (nM) Assay 1 T/L/L718Q
Source text: as §1, §2

[7] = target: EGFR Del/T790M/L718Q Ba/F3 cells (Homo sapiens, UniProt P00533, L718Q/T790M, cells depend on it, form not given); details: 1.0 μM drug; Assay 1
Source text: as §1, §2

[8] = system: KIF5B/Ret_V804M; assay: Ba/F3 cell growth inhibition (MTS assay), KIF5B/Ret_V804M; details: Assay 1
Procedure: as §2

SMILES | EGFR activity (% Control, 100 nM drug) Del [1] [% Control] | EGFR activity (% Control, 100 nM drug) DEL/T790M [2] [% Control] | EGFR activity (% Control, 100 nM drug) L858R [3] [% Control] | EGFR activity (% Control, 100 nM drug) L858R/T790M [4] [% Control] | EGFR activity (% Control, 100 nM drug) L858R/L718Q [5] [% Control] | EGFR activity (% Control, 100 nM drug) L858R/T790M/L718Q [6] [% Control] | IC50 [1] [nM] | IC50 [2] [nM] | IC50 [3] [nM] | IC50 [4] [nM] | IC50 [5] [nM] | IC50 [6] [nM] | EGFR activity (% Control, 1.0 μM drug) Assay 1 Del [1] [% Control] | EGFR activity (% Control, 1.0 μM drug) Assay 1 Del/T790M [2] [% Control] | EGFR activity (% Control, 1.0 μM drug) Assay 1 Del/T790M/L718Q [7] [% Control] | EGFR activity (% Control, 1.0 μM drug) Assay 1 L858R [3] [% Control] | KIF5B/Ret_V804M Ba/F3 cell growth (% control, 1.0 μM drug) [8] [% Control]
C=CC(=O)Nc1cccc(Nc2cc(N(C)C(=O)Nc3ccc(F)c(Cl)c3)ncn2)c1 [Compound 19A] | 79 | 71 | 100 | 101 | 74 | 99 |  |  |  |  |  |  |  |  |  |  | 
COc1ccc(NC(=O)/C=C/CN(C)C)cc1Nc1cc(N(C)C(=O)Nc2ccccc2)ncn1 [Compound 20A] | 2 | 126 | 2 | 26 | 48 | 93 | 2.58 | 211 | 0.994 | 99.1 | 256 | 917 |  |  |  |  | 
CN(C)C/C=C/C(=O)Nc1cccc(Nc2cc(N(C)C(=O)Nc3ccccc3)ncn2)c1 [Compound 21A] | 10 | 107 | 4 | 100 | 94 | 102 |  |  |  |  |  |  |  |  |  |  | 
C=CC(=O)Nc1cccc(N(C(=O)Nc2ccc(F)c(Cl)c2)c2cc(Nc3ccc(N4CCN(C)CC4)cc3OC)ncn2)c1 [Compound 22A] | 3 | 84 | 3 | 4 | 84 | 106 |  |  |  |  |  |  |  |  |  |  | 
C=CC(=O)Nc1ccc(OC)c(Nc2cc(N(C)C(=O)Nc3ccccc3)ncn2)c1 [Compound 74A] |  |  |  |  |  |  | 5.16 | 278 | 0.572 | 215 | 243 | 780 |  |  |  |  | 
Cc1ccc(C(=O)Nc2ccc(CN3CCN(C)CC3)c(C(F)(F)F)c2)cc1C#Cc1cnc2cccnn12 [Ponatinib] |  |  |  |  |  |  |  |  |  |  |  |  | 17 | 79 | 48 | 98 | 2
